The values that follow come from EPA's ToxValDB 9.5 (doi:10.2903/j.efsa.2014.3805).

Structures are written as SMILES. Converted amounts (≈) assume the structure as drawn.

One data set concerns Apis mellifera. As to conditions: acute; oral; unspecified; mortality.
The subject of a further data set is Oncorhynchus mykiss. As to conditions: acute; duration: 96 hours; mortality.
The next data set deals with Daphnia magna. As to conditions: chronic/long-term; duration: 21 days; body weight.
Another data set relates to Bibionidae. As to conditions: chronic/long-term; duration: 28 days; body weight.
In a further data set the test system is Pimephales promelas. As to conditions: chronic/long-term; duration: 28 days; body weight.
The test system of a further data set is Cyprinus carpio. As to conditions: acute; duration: 96 hours; mortality.
The test system of the next data set is Typhlodromus pyri. The data set can be described thus: LR50; higher = less toxic. As to conditions: acute; duration: 7 days; mortality.
The test system of a further data set is Aphidius rhopalosiphi. The data set can be described thus: LR50; higher = less toxic. As to conditions: acute; duration: 48 hours; mortality.

With `COc1ccccc1N1CCS/C1=C(/C#N)Sc1cc(C(F)(F)F)ccc1F` [Flutianil], the LD50 was greater than 100 µg/piece in the data set on Apis mellifera; greater than 2250 mg/kg with Colinus virginianus (acute, oral, mortality); greater than 2000 mg/kg in the data set with Rattus norvegicus (acute, oral, mortality). Moreover, the NOAEL (commonly the highest tested level that showed no adverse finding) in the data set on Colinus virginianus (reproduction developmental) is 186 mg/kg-day; in the data set with Rattus norvegicus (chronic, duration: 2 years, histopathology: nonneoplastic) it was 81.9 mg/kg-day; in the data set on Rattus norvegicus (developmental, development), 100 mg/kg-day; in the data set on Rattus norvegicus (reproduction developmental, organ weight) it was 123 mg/kg-day. Also, the LC50 in the data set with Oncorhynchus mykiss was 0.051 µg/mL (≈ 0.12 µM); with Cyprinus carpio, greater than 0.87 µg/mL; with Tagia sp. (acute, duration: 14 days, mortality) it was greater than 500 mg/kg. The NOEC with Daphnia magna was 0.00697 mg/L; in the data set on Bibionidae, 396 mg/kg; in the data set on Pimephales promelas, 0.000781 mg/L; in the data set on Tagia sp. (chronic/long-term, duration: 8 weeks, reproduction) it was 6.25 mg/kg. Also, the LR50 with Typhlodromus pyri and in the data set with Aphidius rhopalosiphi was greater than 480 g/ha each time.
